Measured values taken from PubChem BioAssay (NCI).
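Results reflect a 48-hour exposure of cells in 96-well plates to compound at five concentrations. The concentration for 50% growth inhibition is given as GI50. TGI: total growth inhibition.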

Tests used:
Test in all cases: NCI-60 cell line screen, 48 h
[1] = system: MDA-MB-468 breast
[2] = system: NCI-H460 lung
[3] = system: HCT-15 colon
[4] = system: M14 melanoma
[5] = system: RPMI-8226 leukemia
[6] = system: COLO 205 colon
[7] = system: NCI-H522 lung
[8] = system: MDA-MB-231 breast
[9] = system: SK-MEL-28 melanoma
[10] = system: SF-539 CNS
[11] = system: NCI-H226 lung
[12] = system: A498 renal
[13] = system: HS 578T breast
[14] = system: SNB-19 CNS
[15] = system: OVCAR-3 ovarian
[16] = system: T-47D breast
[17] = system: 786-0 renal
[18] = system: SF-268 CNS
[19] = system: K-562 leukemia
[20] = system: UACC-62 melanoma
[21] = system: DU-145 prostate
[22] = system: MALME-3M melanoma
[23] = system: MDA-MB-435
[24] = system: SN12C renal
[25] = system: ACHN renal
[26] = system: SR leukemia
[27] = system: OVCAR-8 ovarian
[28] = system: HCT-116 colon
[29] = system: MCF7 breast
[30] = system: HOP-92 NSCLC
[31] = system: HT29 colon
[32] = system: KM12 colon
[33] = system: HOP-62 NSCLC
[34] = system: SNB-75 CNS
[35] = system: HCC-2998 colon
[36] = system: TK-10 renal
[37] = system: CAKI-1 renal
[38] = system: LOX IMVI melanoma
[39] = system: OVCAR-5 ovarian
[40] = system: MOLT-4 leukemia
[41] = system: SF-295 CNS
[42] = system: EKVX NSCLC
[43] = system: HL-60(TB) leukemia
[44] = system: BT-549 breast
[45] = system: SW-620 colon
[46] = system: SK-OV-3 ovarian
[47] = system: SK-MEL-5 melanoma
[48] = system: CCRF-CEM leukemia
[49] = system: IGROV1 ovarian
[50] = system: NCI-H23 lung
[51] = system: U251 CNS
[52] = system: RXF 393 renal
[53] = system: PC-3 prostate
[54] = system: UACC-257 melanoma
[55] = system: UO-31 renal
[56] = system: A549 NSCLC
[57] = system: OVCAR-4 ovarian

SMILES: O=C1/C(=C/c2ccc([N+](=O)[O-])s2)Oc2ccc(Br)cc21
- GI50 [1]: 0.263 µM
- TGI [1]: 0.781 µM

SMILES: O=C(/C=C/c1cccc(Cl)c1)c1ccccc1
- GI50 [1]: 13.1 µM
- TGI [1]: 26.9 µM

SMILES: Nc1ncnc2c1ncn2C1OC(F)(COS(N)(=O)=O)C(O)C1O (stereo unspecified)
- GI50 [1]: > 100 µM
- TGI [1]: > 100 µM

SMILES: CCc1n(Cc2ccc3ccccc3c2)cc[n+]1Cc1ccc2ccccc2c1
- GI50 [1]: 0.182 µM
- TGI [1]: 0.859 µM

SMILES: CC1=C(C(=O)Nc2cc(F)c(F)cc2F)C(c2ccc(N(C)C)cc2)C(C(=O)Nc2cc(F)c(F)cc2F)=C(C)N1
- GI50 [1]: 30.1 µM
- TGI [1]: > 100 µM

SMILES: O=[N+]([O-])c1cc2c(ccc3ccccc32)o1
- GI50 [1]: 0.169 µM
- TGI [1]: 0.446 µM

SMILES: Cc1nc2sc(C(=O)Nc3cccc4c3OCCO4)c(N)c2cc1C(C)O (stereo unspecified)
- GI50 [1]: 3.64 µM
- TGI [1]: > 100 µM

SMILES: O=C1C=CC(=O)N1c1ccc2ccccc2c1
- GI50 [1]: 3.56 µM
- TGI [1]: 14.4 µM

SMILES: Nc1ccccc1SC(CC(=O)c1ccccc1)c1c(Cl)cccc1Cl (stereo unspecified)
- GI50 [1]: 6.3 µM
- TGI [1]: 27.9 µM

SMILES: COc1cccc(C2=C(c3cn(C)c4c(C)cccc34)C(=O)NC2=O)c1
- GI50 [1]: 20.6 µM
- TGI [1]: > 25 µM

SMILES: C=CC(=O)N1CCN(c2nc(OC[C@@H]3CCCN3C)nc3c(F)c(-c4nc(N)cc(C)c4C(F)(F)F)c(Cl)cc23)[C@@H](C)C1
- GI50 [1]: 1.3 µM
- TGI [1]: 2.7 µM

SMILES: Cc1sc(C(NC(=O)OCCn2c([N+](=O)[O-])cnc2C)C(F)(F)Cl)nc1-c1ccc(OC(F)(F)F)cc1 (stereo unspecified)
- GI50 [2]: 3.31 µM
- TGI [2]: > 100 µM
- GI50 [3]: 3.19 µM
- TGI [3]: 12.1 µM
- GI50 [4]: 4.56 µM
- TGI [4]: 18.2 µM
- GI50 [5]: 3.41 µM
- TGI [5]: 54.6 µM
- GI50 [6]: 5.8 µM
- TGI [6]: 21.3 µM
- GI50 [7]: 3.82 µM
- TGI [7]: 15.3 µM
- GI50 [8]: 3.37 µM
- TGI [8]: 12.3 µM
- GI50 [9]: 4.84 µM
- TGI [9]: 17.1 µM
- GI50 [10]: 9.15 µM
- TGI [10]: 21.4 µM
- GI50 [11]: 3.78 µM
- TGI [11]: 16.7 µM
- GI50 [12]: 4.98 µM
- TGI [12]: 20.6 µM
- GI50 [13]: 2.55 µM
- TGI [13]: 33 µM
- GI50 [14]: 4.93 µM
- TGI [14]: 17.4 µM
- GI50 [15]: 3.68 µM
- TGI [15]: 13.3 µM
- GI50 [16]: 3.11 µM
- TGI [16]: 12.8 µM
- GI50 [17]: 7.35 µM
- TGI [17]: 20.7 µM
- GI50 [18]: 3.6 µM
- TGI [18]: 16.3 µM
- GI50 [19]: 3.62 µM
- TGI [19]: > 100 µM
- GI50 [20]: 3.53 µM
- TGI [20]: 15.4 µM
- GI50 [21]: 4.97 µM
- TGI [21]: 17.9 µM
- GI50 [22]: 6.79 µM
- TGI [22]: 21.8 µM
- GI50 [23]: 3.87 µM
- TGI [23]: 15.5 µM
- GI50 [24]: 4.47 µM
- TGI [24]: 15.9 µM
- GI50 [25]: 3.04 µM
- TGI [25]: 11.3 µM
- GI50 [26]: 3.58 µM
- TGI [26]: 30.6 µM
- GI50 [27]: 7.09 µM
- TGI [27]: 22.6 µM
- GI50 [28]: 4.78 µM
- TGI [28]: 20.1 µM
- GI50 [29]: 2.68 µM
- TGI [29]: 10.3 µM
- GI50 [30]: 2.86 µM
- TGI [30]: 11.6 µM
- GI50 [31]: 3.56 µM
- TGI [31]: 13 µM
- GI50 [32]: 3.63 µM
- TGI [32]: 14.7 µM
- GI50 [33]: 8.7 µM
- TGI [33]: 23.9 µM
- GI50 [34]: 1.43 µM
- TGI [34]: 14.2 µM
- GI50 [35]: 4.8 µM
- TGI [35]: 17 µM
- GI50 [36]: 3.96 µM
- TGI [36]: 15.8 µM
- GI50 [37]: 2.83 µM
- TGI [37]: 11.8 µM
- GI50 [38]: 3.42 µM
- TGI [38]: 13.6 µM
- GI50 [39]: 4.28 µM
- TGI [39]: 17.6 µM
- GI50 [40]: 3.74 µM
- TGI [40]: 16.5 µM
- GI50 [41]: 3.26 µM
- TGI [41]: 13.7 µM
- GI50 [42]: 2.8 µM
- TGI [42]: 12.6 µM
- GI50 [43]: 4.06 µM
- TGI [43]: 24.1 µM
- GI50 [44]: 5.57 µM
- TGI [44]: 18.6 µM
- GI50 [45]: 7.32 µM
- TGI [45]: > 100 µM
- GI50 [46]: 12 µM
- TGI [46]: 26.2 µM
- GI50 [47]: 3.89 µM
- TGI [47]: 14.7 µM
- GI50 [48]: 2.32 µM
- TGI [48]: 16.4 µM
- GI50 [49]: 6.15 µM
- TGI [49]: 19.5 µM
- GI50 [50]: 7.46 µM
- TGI [50]: 22.7 µM
- GI50 [51]: 5.38 µM
- TGI [51]: 19.2 µM
- GI50 [52]: 2.65 µM
- TGI [52]: 12.6 µM
- GI50 [53]: 2.65 µM
- TGI [53]: 14.8 µM
- GI50 [54]: 7.75 µM
- TGI [54]: 22.5 µM
- GI50 [55]: 2.77 µM
- TGI [55]: 13.5 µM
- GI50 [1]: 2.37 µM
- TGI [1]: 8.73 µM
- GI50 [56]: 4.57 µM
- TGI [56]: 20.4 µM
- GI50 [57]: 3.85 µM
- TGI [57]: 15.7 µM
